Experimental data as given in ChEMBL document CHEMBL1133920, “Novel 4-piperidinopyridine inhibitors of oxidosqualene cyclase-lanosterol synthase derived by consideration of inhibitor pK(a)” (Bioorg Med Chem Lett, 2001).

How the values were obtained:
[1] = organism: Rattus norvegicus; assay: Effective dose for the 50% inhibition of rat cholesterol biosynthesis; type: functional
[2] = organism: Rattus norvegicus; assay: Effective dose for the 80% inhibition of rat cholesterol biosynthesis; type: functional
[3] = biological target: T1, Lanosterol synthase (Rattus norvegicus) (UniProt P48450); assay: Percent inhibition of rat microsomal oxidosqualene cyclase-lanosterol synthase (OSC) at 100 nM
T1 sequence (whole entry): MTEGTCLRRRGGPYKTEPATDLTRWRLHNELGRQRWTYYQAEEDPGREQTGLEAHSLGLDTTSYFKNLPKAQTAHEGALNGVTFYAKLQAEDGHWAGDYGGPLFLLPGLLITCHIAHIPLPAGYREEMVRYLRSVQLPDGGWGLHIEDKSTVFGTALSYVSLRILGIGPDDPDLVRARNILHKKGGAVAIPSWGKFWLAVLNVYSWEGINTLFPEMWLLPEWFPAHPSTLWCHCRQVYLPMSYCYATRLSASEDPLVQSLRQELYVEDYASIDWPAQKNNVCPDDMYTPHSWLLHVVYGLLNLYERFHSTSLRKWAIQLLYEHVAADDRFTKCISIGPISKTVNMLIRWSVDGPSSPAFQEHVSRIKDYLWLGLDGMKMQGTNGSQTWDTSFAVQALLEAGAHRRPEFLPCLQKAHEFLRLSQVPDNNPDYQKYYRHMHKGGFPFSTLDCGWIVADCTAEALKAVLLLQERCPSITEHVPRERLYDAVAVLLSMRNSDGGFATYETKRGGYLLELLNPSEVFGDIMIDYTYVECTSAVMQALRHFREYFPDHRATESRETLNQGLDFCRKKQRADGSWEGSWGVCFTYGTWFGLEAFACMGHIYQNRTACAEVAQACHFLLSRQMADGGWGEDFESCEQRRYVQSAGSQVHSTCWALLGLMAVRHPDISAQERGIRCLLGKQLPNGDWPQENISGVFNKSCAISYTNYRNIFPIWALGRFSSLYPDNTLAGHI

[4] = tested on: Rattus norvegicus; assay: Percent feeding effect was determined after oral administration of 100 mg/kg in rat; type: functional
[5] = pKa was determined; type: physicochemical
[6] = Concentration for the inhibition of rat microsomal oxidosqualene cyclase-lanosterol synthase (OSC)
[7] = tested on: Rattus norvegicus; assay: Percent reduction in food intake was determined after oral administration of 100 mg/kg in rat after 24 hours
[8] = tested on: Rattus norvegicus; assay: Percent reduction in food intake was determined after oral administration of 50 mg/kg in rat after 24 hours; type: functional

inhibition [3] | SMILES | ED50 [1] | ED80 [2] | other results
100% | O=C(C1CCN(S(=O)(=O)c2ccc(Br)cc2)CC1)N1CCC(c2ccncc2)CC1 | 0.5 mg/kg | 4.7 mg/kg | –
89% | O=C(C1CCN(c2ccncc2Br)CC1)N1CCN(S(=O)(=O)c2ccc(Br)cc2)CC1 | 0.5 mg/kg | – | –
94% | O=C(N1CCC(c2ccncc2)CC1)N1CCN(S(=O)(=O)c2ccc(Br)cc2)CC1 | 0.4 mg/kg | 1.8 mg/kg | Effect [4]: 23%
100% | O=C(N1CCN(c2ccncc2Cl)CC1)N1CCN(S(=O)(=O)c2ccc(F)cc2)CC1 | 1.1 mg/kg | 2.3 mg/kg | –
97% | O=C(N1CCC(c2ccncc2)CC1)N1CCN(S(=O)(=O)c2ccc(F)cc2)CC1 | 0.5 mg/kg | – | –
91% | O=C(N1CCC(c2ccncc2)CC1)N1CCN(S(=O)(=O)c2ccc(Cl)cc2)CC1 | 1.7 mg/kg | 3.6 mg/kg | pKa [5]: 5.8
– | O=C(c1ccc(Cl)cc1)c1ccc(OC2CN3CCC2CC3)cc1 (stereo not given) | – | – | IC50 [6]: 58 nM
– | O=C(C1CCN(c2ccncn2)CC1)N1CCN(S(=O)(=O)c2ccc(Br)cc2)CC1 | 0.4 mg/kg | – | Reduction [7]: 17%
47% | O=C(C1CCN(c2ncncc2Br)CC1)N1CCN(S(=O)(=O)c2ccc(Br)cc2)CC1 | > 2 mg/kg | – | –
– | O=C(c1ccc(C(F)(F)F)cc1)N1CCC(=Cc2ccc(C3=NCCO3)cc2)CC1 | – | – | Reduction [7]: 15%
100% | O=C(N1CCN(c2ccncc2Cl)CC1)N1CCN(S(=O)(=O)c2ccc(C(F)(F)F)cc2)CC1 | 0.2 mg/kg | 0.7 mg/kg | –
100% | O=C(N1CCN(c2ccncc2Cl)CC1)N1CCN(S(=O)(=O)c2ccc(Br)cc2)CC1 | 1.1 mg/kg | 2.3 mg/kg | –
100% | O=C(C1CCN(c2ccncc2F)CC1)N1CCN(S(=O)(=O)c2ccc(C(F)(F)F)cc2)CC1 | 0.4 mg/kg | 1 mg/kg | pKa [5]: 6.7
– | O=C(C1CCN(c2ccncc2)CC1)N1CCN(S(=O)(=O)c2ccc(Br)cc2)CC1 | – | – | Reduction [8]: 64%
87% | O=C(N1CCN(c2ccncc2Cl)CC1)N1CCN(S(=O)(=O)c2ccc(Cl)cc2)CC1 | 0.6 mg/kg | 1.4 mg/kg | pKa [5]: 5.8; Effect [4]: 14%
